Test results from US20200281897A1, “INDAZOLE DERIVATIVES FOR CANCER TREATMENT” (Servicio Andaluz de Salud, priority 2016, published 2020).

Key:
Format in all cases: cell-based, human
[1] = test system: RPMI8226; experiment: MTT cell viability assay, myeloma cell line RPMI; conditions: RPMI, MTT, 18 hours, doses 0-50 μM; read-out: IC50, cell viability
Protocol: In vitro studies were carried out using six different human MM cell lines, U266, RPMI8226, MM1S, MM1R, U266-LR7, and RPMI-LR5. For ex vivo assays, human primary cells from healthy donors and MM patients were used (Table 1). Human MM cell lines U266, RPMI8226, and MM1.S were acquired from ATCC and lines U266-LR7, RPMI-LR5, and MM1.R were kindly provided by Dr. Enrique Ocio (Hospital Universitario de Salamanca, Spain). The primary cells were obtained from bone marrow (BM) aspirates or peripheral blood (PB) samples, and the peripheral blood mononuclear cells (PBMCs) were isolated by Ficoll-Hypaque centrifugation and washed twice in phosphate buffered saline (PBS) containing 1% BSA. Hematopoietic stem cells and B and T lymphocytes were isolated from healthy PB donors by positive immunomagnetic separation using human MACS CD34+, CD19+, and CD3+ microbeads, respectively. MM plasma cells were obtained from the bone marrow (BM) of patients with an infiltration of cells of more than 30% (Table 1). The MM plasma cells were identified using CD138+, and were then distinguished from the other cell populations by flow cytometry using a suitable combination of antibodies: anti-human CD64-FITC, CD34-PE, CD56-APC, CD38-APC-H7, and CD45-Pacific Blue antibodies (BD Biosciences, San Jose, Calif.). All the cell lines were cultured in RPMI-1640 supplemented with 10% fetal bovine serum (FBS) and 1% penicillin/streptomycin, as recommended by the supplier. For human primary cells, the concentration of FBS was up to 20%.
The MM cell lines and primary cells were exposed to different doses of indazole compounds, and viability was evaluated at 18, 48, and 72 hours. Pretreatments with the ceramide synthesis inhibitor (FB1), pan-caspase (ZVAD-FMK), and CB antagonists (PGN-8, PGN-37, and PGN-70) were performed for 30 minutes, and then the cells were incubated with indazole compound WIN-55 up to 18 hours. Cell viability was determined using the MTT assay Cell Counting Kit-8 (Dojindo, Kumamoto, Japan) according to the manufacturer's instructions.

[2] = test system: U266, U266-LR7, RPMI and RPMI-LR5; experiment: Synergy of WIN-55 with anti-myeloma agents, MTT and combination index
Protocol: The evaluation of the synergy of the indazole compound WIN-55 with other anti-myeloma agents, such as dexamethasone and melphalan, was done by evaluating cell viability by means of an MTT assay.
Unless otherwise indicated, an experiment representative of at least three independent experiments is shown. For all the statistical analyses, the data was analyzed by means of Student's T-test with the SPSS software with a statistical significance P≤0.05. The means and standard deviations were also determined. The synergy was calculated using R as described in the Calcusyn software; a combination index (CI)<1 indicates synergy, and >1 indicates antagonism.

[3] = test system: U266; experiment: Western blot and immunofluorescence in U266 cells; conditions: U266, 50 μM
Protocol: The extracts for Western blot were taken after 0, 2, 6, 18, and 24 hours. The cells were lysed according to Gilbert et al., 2002. (J Immunol Methods. 2002, 271:185-201), by adding 2% ASB-14 (Calbiochem, Beeston, United Kingdom) to the isotonic lysis buffer. The protein concentration was determined by Pierce® Microplate BCA Protein Assay kit-Reducing Agent Compatible (Pierce, Rockford, Ill.). The samples were subjected to SDS/PAGE in AnykD precast gels (Bio Rad, Hercules, Calif.) and transferred to PVDF membranes using Trans-Blot® Turbo™ System (Bio-Rad). The membranes were incubated over night at 4° C. with primary antibody in 0.05% Tween 20-Tris buffered saline (TTBS) then with the suitable secondary antibody, and they were subjected to chemiluminescence detection. As a control condition, the cells were treated with DMSO (<0.15%) in RPMI 1640 medium from Gibco (Gaithersburg, Md.).
The antibodies for caspase-2, -8, -9, active caspase-3, -p-Akt (phospho T308), p-Erk (T202+Y204), -p-p38MAPK (phospho T180+Y182), -p-JNK (phospho T183+Y185), -SPT, and the CB1 and CB2 receptors were from Abcam, anti-MCL-1 and -Bcl-xL were from Santa Cruz Biotechnology, anti-PARP was from Cell Signaling Technology, anti-Bax and -Bak were from BD Biosciences. Anti-beta-tubulin was from Sigma-Aldrich. All the horseradish peroxidase (HRP)-conjugated secondary antibodies used were from Jackson ImmunoResearch and produced in a donkey to prevent the possible cross-reactivity when several tests were performed.
The cells treated for 6 hours with indazole compounds were collected and placed on a slide. Immunofluorescence staining was performed as described previously by Vielhaber et al. 2001 (Glycobiology. 2001, 11:451-7) using anti-ceramide as the primary antibody. The ceramide antibody was obtained from Sigma-Aldrich, and the Alexa-488-conjugated secondary antibody was obtained from Abcam. As a control condition, the cells were treated with DMSO (<0.15%) in RPMI 1640 medium from Gibco (Gaithersburg, Md.).

[4] = test system: U937; experiment: WST-1 cell viability assay, U937; conditions: U937, 18 hours
Protocol: U937, NB-4, KG-1, and MOLM-13 (DMSZ, Braunschweig, Germany) were cultured in complete RPMI 1640 medium (with 2 mM of L-glutamine, 100 mg of penicillin, 100 μg/ml of streptomycin, and with 10% FBS), supplemented with 10 mM HEPES, 1×NaPuvuvato, and 1× non-essential amino acids.
The cell lines and primary cells were cultured in 96-well plates (5×10e5 cells per well) with the addition of the indicated concentrations of WIN 55,212-2 or PGN cannabinoids in DMSO or with the solvent only in triplicate at 18, 48, and 72 hours. Caspase inhibitor Z-VAD (OMe)-FMK or the CB2 receptor antagonist PGN-8, -37, and -70, together with the cannabinoid WIN-55,212-2, were also added. Cell viability was determined by means of the WST-1 assay [2-(4-iodophenyl)-3-(4-nitrophenyl)-5-(2,4-disulfophenyl)-2H-tetrazolium] according to the manufacturer's instructions (Dojindo Molecular Technologies). Optical densities were measured at 450 nm using a Multiskan™ Go Microplate plate reader (Thermo Fisher Scientific, Waltham, Mass., USA).
Now it will be analyzed whether the exposure to cannabinoids had any effect on the viability of the tumor cells in vitro. […]

CS(=O)(=O)O.Cc1c(C(=O)c2cccc3ccccc23)c2cccc3c2n1[C@H](CN1CCOCC1)CO3 [WIN-55, (R)-(+)-[2,3-dihydro-5-methyl-3-(4-morpholinomethyl)-pyrrolo[1,2,3]-1,4-benzoxazin-6-yl]-1-naphthalenylmethanone mesylate]
IC50 [1]: 11.7 µM
combination effect (combination index) with dexamethasone ([2]; WIN-55 20 μM (U266, U266-LR7, RPMI-LR5) or 10 μM (RPMI) plus DEX): synergistic effect
combination effect (combination index) with melphalan ([2]; WIN-55 20 μM (U266, U266-LR7, RPMI-LR5) or 10 μM (RPMI) plus MPH): synergistic effect
caspase-3 activation (cleaved forms, Western blot) [3]: induction of caspase-3 activation
expression of endoplasmic reticulum stress marker proteins CHOP, ATF-4, p-IRE1, XBP-1s [3]: slight but sustained decrease
expression of ceramides (immunofluorescence) ([3]; 6 hours): considerable increase in the expression of ceramides
expression of p-Akt (phospho-T308) ([3]; early points in time, decrease at later times): significant overexpression of p-Akt
expression level of serine-palmitoyltransferase (SPT) ([3]; maximum at 18 hours): increased
% viable cells at 50 μM [4]: 17.2%
IC50 [4]: 16 µM
